This is an account of results in patent US20100016213A1, “USE OF A DITERPENOID COMPOUND FOR TREATING DIABETES” (National Taiwan University, priority 2008, published 2010).

Holding throughout (format): in vivo
Test [1] relates to normal mice. The experiment in a line: Lowering plasma glucose level, intraperitoneal injection, normal mice. Conditions: normal mice, one hour after administration. The procedure:
(§1) Normal and streptozotocin (STZ)-induced diabetic mice were administered with borapetoside A (5.0 mg/kg), borapetoside C (5.0 mg/kg), glibenclamide (5.0 mg/kg), metformin (500.0 mg/kg), or a vehicle control via intraperitoneal injection. STZ-induced diabetic mice are a well-known mouse model of type I diabetes (insulin dependent). See, e.g., Liu I M, et al., Neuroscience Letters 2001; 307: 81-84. Glibenclamide and metformin serve as two positive controls in this study.
(§2) The plasma glucose levels of the treated mice were determined before and one hour after administration. The activity of lowering plasma glucose levels (AL) is calculated following the formula: […]
(§3) Borapetoside C was administered to normal mice at 0.1, 1.0, 3.0, and 5.0 mg/kg and to STZ-diabetic mice at 0.1, 1.0, 3.0, and 5.0 mg/kg. The plasma glucose levels of the treated mice were examined before and after treatment.

The test system of test [2] is STZ-induced diabetic mice. The experiment in a line: Lowering plasma glucose level, intraperitoneal injection, STZ-induced diabetic mice (type I diabetes model). Conditions: one hour after administration. How it is done:
as §1, §2, §3

For test [3], the system named is DIO-induced diabetic mice. Kind of test: Lowering plasma glucose level, intraperitoneal injection, diet-induced obesity diabetic mice (type II diabetes model). Conditions: one hour after administration. The procedure: Normal and diet-induced obesity diabetic mice (“DIO-induced diabetic mice) were administered with borapetoside A (5.0 mg/kg), borapetoside C (5.0 mg/kg), glibenclamide (5.0 mg/kg), metformin (500.0 mg/kg), or a vehicle control via intraperitoneal injection. DIO-induced diabetic mice are a well-known mouse model of type II diabetes (non-insulin dependent). See Liu et al., J Mol. Endocrinol. 2008.
The plasma glucose levels of the treated mice were determined before and one hour after administration. The activities of these compounds for lowering plasma glucose levels were calculated as described above.
Borapetoside C was administered to DIO-induced diabetic mice at 0.1, 1.0, 3.0, and 5.0 mg/kg and the plasma glucose levels were examined before and after administration. The basal plasma glucose concentration in diet-induced diabetic mice (untreated) was 174.6±7.7 mg/dL. One hour after treatment, the plasma glucose levels in mice treated with vehicle control, 0.1 mg/kg borapetoside C, 1.0 mg/kg borapetoside C, 3.0 mg/kg borapetoside C, and 5.0 mg/kg borapetoside C were 172.5±10.9 mg/dL, 170.5±6.8 mg/dL, 127.9±6.0 mg/dL, 121.3±4.3 mg/dL and 119.9±4.6 mg/dL, respectively.

Test [4] relates to normal mice. Kind of test: Plasma insulin levels before and after treatment (Insulin ELISA), normal mice. Conditions: 5.0 mg/kg i.p.; for Plasma insulin, Pre-treatment: before treatment; for Plasma insulin, post-treatment: one hour after treatment. The procedure:
(§4) Normal mice, STZ-induced diabetic mice, and diet-induced diabetic mice were administered with a vehicle control, borapetoside A (5.0 mg/kg), borapetoside C (at various doses), glibenclamide (5.0 mg/kg) or metformin (500 mg/kg) by intraperitoneal injection. These mice were examined for their blood insulin levels before and one hour after treatment, using the Insulin(Rat) ELISA kit obtained from Penisula Lab. Inc., San Carlos, Calif., USA.

Test [5] relates to STZ-diabetic mice (IDDM). The experiment in a line: Plasma insulin levels before and after treatment (Insulin ELISA), STZ-diabetic mice. Conditions: for Plasma insulin, Pre-treatment: before treatment; for Plasma insulin, post-treatment: one hour after treatment. The procedure:
as §4

The test system of test [6] is Diet-induced diabetic (NIDDM) mice. The experiment in a line: Plasma insulin levels before and after treatment (Insulin ELISA), diet-induced diabetic mice. Conditions: 5.0 mg/kg i.p.; for Plasma insulin, Pre-treatment: before treatment; for Plasma insulin, post-treatment: one hour after treatment. How it is done: as §4
Test [7] relates to normal mice. The experiment in a line: Lowering plasma glucose levels via oral administration, normal mice. Conditions: oral 10.0 mg/kg, sixty minutes after treatment, mean ± SEM, six animals. How it is done:
(§5) Normal, STZ-induced diabetic mice, and diet-induced diabetic mice were administered orally with 10.0 mg/kg borapetoside C, glibenclamide or metformin as a positive control, and a vehicle control. The plasma glucose levels of the treated mice were determined before and sixty minutes after treatment and the results thus obtained were shown in Table 3 below.

In test [8] the test system is Diet-induced diabetic mice (NIDDM). Kind of test: Lowering plasma glucose levels via oral administration, diet-induced diabetic mice. Conditions: oral 10.0 mg/kg, sixty minutes after treatment, mean ± SEM, six animals. The procedure:
as §5

The subject of a further test is Normal ICR mice. The experiment in a line: Intraperitoneal glucose tolerance test (IPGTT), normal ICR mice. Conditions: borapetoside C 5.0 mg/kg. The procedure: (§6) Normal ICR mice and DIO-induced diabetic mice, treated with borapetoside C (5.0 mg/kg), a vehicle control, or glibenclamide (positive control), were subjected to an intraperitoneal glucose tolerance test (IPGTT) as described in Lamont et al., Diabetes 2008; 57: 190-198. More specifically, glucose (2.0 mg/g body weight) was administered via IP injection to normal and DIO mice and blood samples were drawn from the treated mice before and 30, 60, 120, and 150 min after glucose administration for examination of glucose levels.
In normal mice treated with borapetoside C, the vehicle control, and glibenclamide, the basal plasma glucose concentrations were 106.8±4.7 mg/dL, 114.7±4.6 mg/dL, and 104.9±3.1 mg/dL, respectively. Thirty minutes after intraperitoneal glucose injection, the plasma glucose concentration was elevated to 346.2±14.7 mg/dL in vehicle-treated mice, to 292.9±10.9 mg/dL in borapetoside C-treated mice, or to 273.4±13.6 mg/dL in glibenclamide-treated mice.

The subject of test [9] is DIO-induced diabetic mice. Kind of test: Intraperitoneal glucose tolerance test (IPGTT), DIO-induced diabetic mice. Conditions: diet-induced diabetic mice, borapetoside C 5.0 mg/kg. The procedure:
as §6
In diet-induced diabetic mice treated with borapetoside C, the vehicle control, and glibenclamide, the basal plasma glucose concentrations were 181.6±12.3 mg/dL, 183.1±2.9 mg/dL, and 185.3±7.7 mg/dL, respectively. Thirty minutes after intraperitoneal glucose injection, the plasma glucose concentration was elevated to 405.6±8.9 mg/dL in vehicle-treated mice, to 343.5±11.2 mg/dL in borapetoside C-treated mice, or to 339.1±15.4 mg/dL in glibenclamide-treated mice.

Test [10] deals with STZ-diabetic mice (IDDM). The experiment in a line: Lowering plasma glucose levels via oral administration, STZ-diabetic mice. Conditions: oral 500.0 mg/kg, sixty minutes after treatment, mean ± SEM, six animals. How it is done: as §5
Test [11] concerns DIO-induced diabetic mice(NIDDM). Kind of test: Glycogen content in skeletal muscle, DIO-induced diabetic mice. Conditions: 30 minutes after injection. How it is done:
(§7) Normal, STZ-induced diabetic, and DIO-induced diabetic mice were intraeritoneally injected with borapetoside C (5 mg/kg) and Actrapid (0.5 IU/kg; a short-acting insulin provided by Novo Nordisk) or metformin (500 mg/kg). Their glycogen contents in skeletal muscle were determined 30 minutes after injections.

In test [12] the test system is normal mice. Kind of test: Glycogen content in skeletal muscle, normal mice. Conditions: 0.5 IU/kg i.p., 30 minutes after injection. How it is done:
as §7

The next test relates to STZ-diabetic mice(IDDM). The experiment in a line: Glycogen content in skeletal muscle, STZ-diabetic mice. Conditions: 0.5 IU/kg i.p., 30 minutes after injection. How it is done: as §7
For test [13], the system named is normal mice. Kind of test: Insulin sensitivity: plasma glucose reduction with insulin plus borapetoside C or vehicle, normal mice. Conditions: thirty minutes after insulin. How it is done:
(§8) The effect of borapetoside C on insulin sensitivity was tested following the method described in Liu, et al., Clinical and Experimental Pharmacology and Physiology 2005; 32: 649-654. Normal mice (n=6), STZ-induced diabetic mice (n=5), and DIO-induced diabetic mice (n=7) were treated with insulin at various doses (i.e., 0.1 IU/kg, 0.5 IU/kg, and 1.0 IU/kg) together with either borapetoside C (0.1 mg/kg) or a vehicle control. Their plasma glucose levels were examined before and thirty minutes after insulin administration. The activity of lowering plasma glucose levels (AL) was calculated following the formula described in Example 2 above.

The subject of test [14] is STZ-induced diabetic mice. The experiment in a line: Insulin sensitivity: plasma glucose reduction with insulin plus borapetoside C or vehicle, STZ-induced diabetic mice. Conditions: thirty minutes after insulin. The procedure:
as §8

Test [15] deals with DIO-induced diabetic mice. Kind of test: Insulin sensitivity: plasma glucose reduction with insulin plus borapetoside C or vehicle, DIO-induced diabetic mice. Conditions: thirty minutes after insulin. How it is done: as §8
Test [16] relates to liver phosphoenolpyruvate carboxykinase (PEPCK). Kind of test: Liver PEPCK levels by western blot in STZ-induced mice. Conditions: borapetoside C 5.0 mg/kg, twice per day for 7 days, insulin dose not given. The procedure:
To characterize the effect of borapetoside C on liver glucose utilization, levels of liver phosphoenolpyruvate carboxykinase (PEPCK) were examined by western blot analysis in STZ-induced mice treated with borapetoside C (5.0 mg/kg, twice per day for 7 days), insulin, or a vehicle control.

[17] abbreviates: 5.0 mg/kg intraperitoneal injection.
Setting [18] is: 500.0 mg/kg intraperitoneal injection.
Where [19] appears, read: Insulin 0.1 IU/kg together with Vehicle.
Where [20] appears, read: Insulin 0.5 IU/kg together with Vehicle.
The mark [21] stands for this setting: Insulin 1.0 IU/kg together with Vehicle.

`C[C@@]12C[C@@H](c3ccoc3)OC(=O)[C@@H]1C[C@@H]1OC(=O)[C@@]3(O)[C@@H](O[C@@H]4O[C@H](CO)[C@@H](O)[C@H](O)[C@H]4O)CC[C@@H]2[C@@]13C` [borapetoside A]: the figures for the “Activities of Lowering Plasma Glucose Levels (AL)” value (in the test on normal mice [1] (setting [17]); in test [2] (setting [17])) were 49.4 ± 4.8% and 54.3 ± 6.3%, respectively. The “AL (activity of lowering plasma glucose levels)” value in test [3] (setting [17]) amounted to 29.7±6.1%. Further, the “Plasma insulin, Pre-treatment” value in the test with normal mice [4] stood at 56.0 ± 2.8 pmol/L; in the test on STZ-diabetic mice (IDDM) [5] (5.0 mg/kg i.p.), 16.0 ± 4.1 pmol/L; in [6] it was 106.6 ± 14.6 pmol/L. Besides, the “Plasma insulin, post-treatment” value came out at 117.6 ± 10.8 pmol/L in the test on normal mice [4], 18.7 ± 8.4 pmol/L in the test with STZ-diabetic mice (IDDM) [5] (5.0 mg/kg i.p.) and 173.8 ± 26.9 pmol/L in test [6].

For `COc1ccc(Cl)cc1C(=O)NCCc1ccc(S(=O)(=O)NC(=O)NC2CCCCC2)cc1` [glibenclamide, reference compound], the “Activities of Lowering Plasma Glucose Levels (AL)” value in the test with normal mice [1] (setting [17]) came to 19.3 ± 1.6%; in test [2] (setting [17]), 3.2 ± 1.9%. In addition, in test [3] (setting [17]), the “AL (activity of lowering plasma glucose levels)” value came to 25.8±2.1%. Besides, the “Activity of lowing plasma glucose levels (%)” value in the test with normal mice [7] came out at 25.9 ± 3.5 %; in test [8] it was 34.9 ± 4.0 %. Besides, the “Plasma insulin, Pre-treatment” value in the test on normal mice [4] came out at 50.8 ± 3.6 pmol/L; in test [6] it was 119.3 ± 9.6 pmol/L. For the same molecule, the “Plasma insulin, post-treatment” value stood at 149.5 ± 15.0 pmol/L in the test with normal mice [4] and 197.0 ± 18.8 pmol/L in test [6]. For the same molecule, the “basal plasma glucose concentration (IPGTT)” value in the test with Normal ICR mice (before glucose injection) was found to be 104.9 ± 3.1 mg/dL; in test [9] (before glucose injection) it was 185.3 ± 7.7 mg/dL. Moreover, the “plasma glucose concentration thirty minutes after intraperitoneal glucose injection (IPGTT)” value in the test with Normal ICR mice (glucose 2.0 mg/g body weight IP, vehicle 346.2±14.7) was determined as 273.4 ± 13.6 mg/dL; in test [9] (glucose 2.0 mg/g body weight IP, vehicle 405.6±8.9), 339.1 ± 15.4 mg/dL.

Regarding `CN(C)C(=N)N=C(N)N` [metformin, reference compound], the “Activities of Lowering Plasma Glucose Levels (AL)” value in the test with normal mice [1] (setting [18]) worked out at 20.0 ± 2.5%; in test [2] (intraperitoneal injection), 34.1 ± 5.5%. Also, the “AL (activity of lowering plasma glucose levels)” value in test [3] (setting [18]) came out at 30.7±0.6%. Besides, the “Activity of lowing plasma glucose levels (%)” value in the test on STZ-diabetic mice (IDDM) [10] came out at 18.1 ± 1.9 %. Moreover, the “Plasma insulin, post-treatment” value with STZ-diabetic mice (IDDM) [5] (500 mg/kg i.p.) was 15.1 ± 1.5 pmol/L. Also, in the test on STZ-diabetic mice (IDDM) [5], the “Plasma insulin, Pre-treatment” value is on record as 13.5 ± 1.1 pmol/L. Besides, the “Glycogen content (μmol/g wet weight)” value in test [11] (500 mg/kg i.p.) is 23.5 ± 0.9 μmol/g wet weight.

With “Insulin: Actrapid, a short-acting insulin provided by Novo Nordisk [reference compound]”, the entries for the “Glycogen content (μmol/g wet weight)” value (in the test on normal mice [12]; in the test on STZ-diabetic mice(IDDM); in [11] (0.5 IU/kg i.p.)) were 30.2 ± 2.0 μmol/g wet weight, 30.0 ± 1.0 μmol/g wet weight and 20.2 ± 0.6 μmol/g wet weight, respectively. Moreover, the “AL (%)” value in the test with normal mice [13] (setting [19]) is listed as 14.6 ± 0.8%; in the test with normal mice [13] (setting [20]), 37.5 ± 1.1%; in the test with normal mice [13] (setting [21]), 56.8 ± 1.9%; in test [14] (setting [19]), 8.7 ± 1.6%; in [14] (setting [20]), 11.5 ± 0.6%; in test [14] (setting [21]), 24.0 ± 1.3%. The “AL (%)” value is 19.5 ± 1.5% in test [15] (setting [19]), 27.5 ± 2.6% in test [15] (setting [20]) and 32.0 ± 1.1% in test [15] (setting [21]). Also, the “liver PEPCK levels versus vehicle control-treated mice (western blot)” value in [16] is reported as “much lower”.
